This note sets out measurements from patent US8222219B2, “Glucopyranoside compound” (Mitsubishi Tanabe Pharma Corporation, priority 2003, dated 2012).

pIC50: −log10 of the molar value.

As a reminder, the pIC50 is the IC50 on a negative log10 scale, so that one unit is a factor of ten. As a reminder, the melting point is the temperature, or range, at which the solid turns liquid.

The target in one data set is T1, human SGLT2 (Homo sapiens, UniProt P31639).
T1 construct: expressed in transfected cells; host or cells: CHOK1 (CHO-K1) cells, kept under Geneticin selection
T1 sequence (P31639 1-672): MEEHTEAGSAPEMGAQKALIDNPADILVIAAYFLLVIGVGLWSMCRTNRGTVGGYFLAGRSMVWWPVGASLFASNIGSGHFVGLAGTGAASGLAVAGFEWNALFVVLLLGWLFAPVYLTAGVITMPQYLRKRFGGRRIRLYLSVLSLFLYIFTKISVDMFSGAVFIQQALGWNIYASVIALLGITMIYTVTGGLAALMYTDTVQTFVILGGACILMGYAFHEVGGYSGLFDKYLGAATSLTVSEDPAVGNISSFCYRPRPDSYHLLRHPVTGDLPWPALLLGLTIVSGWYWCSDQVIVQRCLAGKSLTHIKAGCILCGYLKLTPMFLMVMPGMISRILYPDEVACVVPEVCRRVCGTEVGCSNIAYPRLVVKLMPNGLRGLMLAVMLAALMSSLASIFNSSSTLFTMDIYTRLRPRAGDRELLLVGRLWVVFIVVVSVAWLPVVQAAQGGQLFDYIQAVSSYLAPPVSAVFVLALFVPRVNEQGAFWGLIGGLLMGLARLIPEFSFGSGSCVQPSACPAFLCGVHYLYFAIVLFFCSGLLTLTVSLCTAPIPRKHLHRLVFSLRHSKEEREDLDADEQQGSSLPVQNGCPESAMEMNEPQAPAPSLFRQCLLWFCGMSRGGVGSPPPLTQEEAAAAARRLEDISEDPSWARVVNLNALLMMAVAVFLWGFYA
Nature of the data set: Assay for SGLT2 inhibition (14C-AMG uptake in CHOK1 cells expressing human SGLT2). The data set is classed as cell-based. The settings on record: CHOK1 cells expressing human SGLT2; 14C-AMG uptake 0.5 mM, 2 hours at 37° C.; read-out: IC50. The method, then: 1. Assay for SGLT2 Inhibition
Compounds described in the above examples were used for the SGLT2 inhibition assay.
CHOK1 cells expressing human SGLT2 were seeded in 24-well plates at a density of 400,000 cells/well in F-12 nutrient mixture (Ham's F-12) containing 10% fetal bovine serum, 400 μg/ml Geneticin, 50 units/ml sodium penicillin G (Gibco-BRL) and 50 μg/ml streptomycin sulfate. […] Test compounds were dissolved in DMSO. The final concentration of DMSO was 0.5%. The transport reaction was initiated by addition of 50 μl [^14C]-methyl-α-D-glucopyranoside (^14C-AMG) solution (final concentration, 0.5 mM). After incubation for 2 hours at 37° C., the uptake was stopped by aspiration of the incubation mixture, the cells were washed three times with ice-cold PBS. Then, cells were solubilized with 0.3 N NaOH and aliquots were taken for determination of radioactivity by a liquid scintillation counter. Nonspecific AMG uptake was defined as that which occurred in the presence of 100 μM of phlorizin, a specific inhibitor of sodium-dependent glucose cotransporter. Specific uptake was normalized for the protein concentrations measured by the method of Bradford.

Another data set has as its system Sprague-Dawley (SD) rats. Nature of the data set: Urinary glucose excretion test in rats. Type of data set: in vivo, rat. As to conditions: male SD rats, 30 mg/kg oral gavage, urine collected for 24 hours; daily amount of glucose excreted per individual. The method, then:
2. Urinary Glucose Excretion Test in Rats Test Compounds:
Compounds described in the above examples were used for the urinary glucose excretion test in rats.
6-week-old male Sprague-Dawley (SD) rats were housed in individual metabolic cages with free access to food and water from 2 days prior to the experiment. On the morning of the experiment, rats were administered vehicle (0.2% carboxymethyl cellulose solution containing 0.2% Tween80) or test compounds (30 mg/kg) by oral gavage at a volume of 10 ml/kg. Then, urine of the rat was collected for 24 hours, and the urine volume was measured. Subsequently, the glucose concentration in urine was quantified using the enzymatic assay kit and the daily amount of glucose excreted in urine per individual was calculated.

Consider `Cc1ccc([C@@H]2O[C@H](CO)[C@@H](O)[C@H](O)[C@H]2O)cc1Cc1ccc(-c2ccc(F)s2)s1` [Example 148], for which, at human SGLT2, the pIC50 was 8.55. Also, in the data set on Sprague-Dawley (SD) rats, the Urinary glucose entry is given as “B (2000 mg>B≧1000 mg)”.

As to `Cc1ccc([C@@H]2O[C@H](CO)[C@@H](O)[C@H](O)[C@H]2O)cc1Cc1ccc(-c2ccc(C#N)cc2)s1` [Example 151], the pIC50 at human SGLT2 was 8.60. The Urinary glucose result in the data set on Sprague-Dawley (SD) rats is listed as “B (2000 mg>B≧1000 mg)”.

In the case of `OC[C@H]1O[C@@H](c2ccc(Cl)c(Cc3ccc(-c4cccc(F)n4)s3)c2)[C@H](O)[C@@H](O)[C@@H]1O` [Example 156], the pIC50 on human SGLT2 is 8.96. Besides, the Urinary glucose result in the data set with Sprague-Dawley (SD) rats is “A (A≧2000 mg)”.

`OC[C@H]1O[C@@H](c2ccc(Cl)c(Cc3ccc(-c4ccc(F)nc4)s3)c2)[C@H](O)[C@@H](O)[C@@H]1O` [Example 168, 1-(β-D-glucopyranosyl)-4-chloro-3-(5-(6-fluoro-3-pyridyl)-2-thienylmethyl)benzene]: the pIC50 on human SGLT2 is 8.64. The Urinary glucose result in the data set on Sprague-Dawley (SD) rats is on record as “A (A≧2000 mg)”.

For the compound `COc1ccc(-c2ccc(Cc3cc([C@@H]4O[C@H](CO)[C@@H](O)[C@H](O)[C@H]4O)ccc3Cl)s2)cn1` [Example 169, 1-(β-D-glucopyranosyl)-4-chloro-3-(5-(6-methoxy-3-pyridyl)-2-thienylmethyl)benzene], at human SGLT2, the pIC50 was 8.44. Also, the Urinary glucose result with Sprague-Dawley (SD) rats was “B (2000 mg>B≧1000 mg)”.

Regarding `COc1cccc(-c2ccc(Cc3cc([C@@H]4O[C@H](CO)[C@@H](O)[C@H](O)[C@H]4O)ccc3Cl)s2)n1` [Example 170, 1-(β-D-glucopyranosyl)-4-chloro-3-(5-(6-methoxy-2-pyridyl)-2-thienylmethyl)benzene], the negative logarithm of the IC50 (pIC50) at human SGLT2 is 8.46. Moreover, in the data set on Sprague-Dawley (SD) rats, the Urinary glucose entry is “B (2000 mg>B≧1000 mg)”.

Consider `Cc1ccc([C@@H]2O[C@H](CO)[C@@H](O)[C@H](O)[C@H]2O)cc1Cc1ccc(-c2ccc(F)c(F)c2)s1` [Example 177, 1-(β-D-glucopyranosyl)-3-(5-(3,4-difluorophenyl)-2-thienylmethyl)-4-methylbenzene], for which the pIC50 on human SGLT2 was 8.17. Besides, the Urinary glucose result with Sprague-Dawley (SD) rats is listed as “A (A≧2000 mg)”.

For `OC[C@H]1O[C@@H](c2ccc(Cl)c(Cc3ccc(-c4cccc(C(F)F)c4)s3)c2)[C@H](O)[C@@H](O)[C@@H]1O` [Example 178, 1-(β-D-glucopyranosyl)-4-chloro-3-(5-(3-difluoromethylphenyl)-2-thienylmethyl)benzene], on human SGLT2, the pIC50 is 8.29. Also, in the data set on Sprague-Dawley (SD) rats, the Urinary glucose result is given as “B (2000 mg>B≧1000 mg)”.

Compound `N#Cc1cccc(-c2ccc(Cc3cc([C@@H]4O[C@H](CO)[C@@H](O)[C@H](O)[C@H]4O)ccc3F)s2)c1` [Example 189, 1-(β-D-glucopyranosyl)-4-fluoro-3-(5-(3-cyanophenyl)-2-thienylmethyl)benzene] gave a melting point of 127 to 129 °C. For the same compound, the pIC50 on human SGLT2 was 8.62. In addition, in the data set on Sprague-Dawley (SD) rats, the Urinary glucose result was “B (2000 mg>B≧1000 mg)”.

In the case of `OC[C@H]1O[C@@H](c2ccc(F)c(Cc3ccc(-c4nccs4)s3)c2)[C@H](O)[C@@H](O)[C@@H]1O` [Example 190, 1-(β-D-glucopyranosyl)-4-fluoro-3-(5-(2-thiazolyl)-2-thienylmethyl)benzene], the melting point lay in the range of 161.5 to 162 °C. Besides, the pIC50 on human SGLT2 is 8.51.

For `OC[C@H]1O[C@@H](c2ccc(Cl)c(Cc3ccc(-c4ccc(F)cn4)s3)c2)[C@H](O)[C@@H](O)[C@@H]1O` [Example 194, 1-(β-D-glucopyranosyl)-4-chloro-3-(5-(5-fluoropyridin-2-yl)-2-thienylmethyl)benzene], the pIC50 on human SGLT2 was 8.59. Further, the Urinary glucose result in the data set on Sprague-Dawley (SD) rats is reported as “A (A≧2000 mg)”.
